The source of these data is US9040714B2 (MannKind Corporation, priority 2010, dated 2015).

The structures appear in SMILES notation. pEC50, pIC50: −log10 of the molar value. Bounds are passed on as bounds.

A word on the pIC50: it is the IC50 on a negative log10 scale, so that one unit is a factor of ten. Higher therefore signals a small IC50.

The subject of the first assay is IRE-1α-mediated XBP-1 splicing in human myeloma MM.1s cells. Kind of assay: Cellular EC50: endogenous XBP-1 splicing in myeloma cells by RT-PCR (DTT stress). It is filed as cell-based. The note with it: MM1.S, average cellular EC50, XBP-1 splicing in myeloma cells, read-out: EC50_av. The procedure: Human myeloma MM.1s cells are incubated with a compound for 1.25 hours before stressing the cells with 2 mM dithiothreitol (DTT). After an additional 45 minutes (2 hours total) with compound and DTT, the cells are harvested with TRIZOL® (a mono-phasic solution of phenol and guanidine isothiocyanate), and total RNA is prepared as directed by the manufacturer (Invitrogen). Human XBP-1 is amplified by RT-PCR with the following primers, which flank the 26 base unconventional intron excised by IRE-1α:
RT-PCR of unstressed (U) cells then generates the upper band. When cells are stressed (S) with the endoplasmic reticulum (ER) stressing agent DTT, IRE-1α is activated due to accumulating unfolded protein and the resulting RT-PCR, product is 26 base pairs shorter.
Compounds which pass specificity assays are assayed for cellular EC50 using endogenous XBP-1 splicing in myeloma cells. XBP-1 is regulated through the excision of a 26 nucleotide intron from the XBP-1 mRNA by the highly specific endoribonuclease activity of IRE-1α. […] This splicing event is used to measure IRE-1α activity on XBP-1 mRNA in cells and tissues.
Briefly, compounds are incubated in the presence or absence of an ER stress agent (e.g., DTT), and the ratio of XBP-1u (unspliced) to XBP-1 s (spliced) is quantified by RT-PCR. The ED50 is determined as the 50% XBP-1s to total XPB-1 levels.
On to `Cc1c(-c2ccc(C(=O)NCCN3CCOCC3)cc2)c(=O)oc2c(C=O)c(O)ccc12` [Example 3], for which the pEC50 is greater than 5.00.

Turning to `Cc1oc2c(C=O)c(O)ccc2c(=O)c1CC(=O)N1CCN(C)CC1` [Example 222], the pEC50 was greater than 5.00. The same measure, in the same setting: under `CCNC(=O)Cc1c(C)oc2c(C=O)c(O)ccc2c1=O` [Example 223] stands greater than 5.00; under `Cc1oc2c(C=O)c(O)ccc2c(=O)c1CC(=O)NCCN(C)C` [Example 224], less than 5.00.

Turning to `Cc1oc2c(C=O)c(O)ccc2c(=O)c1CC(=O)NCCN1CCOCC1` [Example 225], the pEC50 was less than 5.00. Turning to `COCCNC(=O)Cc1c(C)oc2c(C=O)c(O)cc(OC)c2c1=O` [Example 226], the pEC50 is greater than 5.00. For the compound `COc1cc(O)c(C=O)c2oc(C)c(CC(=O)N3CCOCC3)c(=O)c12` [Example 227], the pEC50 was greater than 5.00. On the same count and under the same terms, under `CCNC(=O)Cc1c(C)oc2c(C=O)c(O)cc(OC)c2c1=O` [Example 228] stands greater than 5.00; under `Cn1c(CCC(=O)N2CCOCC2)nc2ccc(O)c(C=O)c21` [Example 229], less than 5.00. Same read-out and setting: to `CCNC(=O)CCc1nc2c(C=O)c(O)ccc2n1C` [Example 230] belongs less than 5.00; to `COCCNC(=O)CCc1nc2c(C=O)c(O)ccc2[nH]1` [Example 231], less than 5.00; to `O=Cc1c(O)ccc2[nH]c(CCC(=O)N3CCOCC3)nc12` [Example 232], less than 5.00. With `CN1CCC(NC(=O)CCc2nc3c(C=O)c(O)ccc3[nH]2)CC1` [Example 233], the pEC50 is greater than 5.00. The same measure, in the same setting: to `CCNC(=O)CCc1nc2c(C=O)c(O)ccc2[nH]1` [Example 234] belongs less than 5.00; to `O=Cc1c(O)ccc2nc(CCC(=O)NCCN3CCOCC3)[nH]c12` [Example 235], less than 5.00; to `CN(C)CCNC(=O)CCc1nc2c(C=O)c(O)ccc2[nH]1` [Example 236], less than 5.00. The same measure, in the same setting: to `COCCNC(=O)CCc1nc2ccc(O)c(C=O)c2n1C` [Example 237] belongs less than 5.00; to `Cn1c(CCC(=O)NCCN2CCOCC2)nc2ccc(O)c(C=O)c21` [Example 238], less than 5.00. Still for that read-out and setting: to `CN1CCN(C(=O)CCc2nc3ccc(O)c(C=O)c3n2C)CC1` [Example 239] belongs less than 5.00; to `Cn1c(CCC(=O)O)nc2ccc(O)c(C=O)c21` [Example 240], less than 5.00; to `COCCNC(=O)CCc1nc2c(C=O)c(O)ccc2n1C` [Example 241], less than 5.00. Regarding `Cn1c(CCC(=O)N2CCOCC2)nc2c(C=O)c(O)ccc21` [Example 242], the pEC50 is less than 5.00.

Consider `Cn1c(CCC(=O)NCCN2CCOCC2)nc2c(C=O)c(O)ccc21` [Example 243], for which the pEC50 is less than 5.00.

On to `CN1CCN(C(=O)CCc2nc3c(C=O)c(O)ccc3n2C)CC1` [Example 244], for which the pEC50 was less than 5.00. Still for that read-out and setting: to `CCOC(=O)CCc1nc2c(C=O)c(O)ccc2n1C` [Example 245] belongs greater than 5.00; to `Cn1c(CCC(=O)O)nc2c(C=O)c(O)ccc21` [Example 246], less than 5.00; to `CCOC(=O)CCc1nc2c(C=O)c(O)ccc2o1` [Example 247], less than 5.00. With `O=Cc1c(O)ccc2oc(CCC(=O)O)nc12` [Example 248], the pEC50 was less than 5.00. For `COCCNC(=O)CCc1nc2c(C=O)c(O)ccc2o1` [Example 249], the pEC50 was less than 5.00. As to `O=Cc1c(O)ccc2oc(CCC(=O)N3CCOCC3)nc12` [Example 250], the pEC50 was less than 5.00. The same measure, in the same setting: under `CN1CCN(C(=O)CCc2nc3c(C=O)c(O)ccc3o2)CC1` [Example 251] stands less than 5.00. As to `CCNC(=O)CCc1nc2c(C=O)c(O)ccc2o1` [Example 252], the pEC50 was less than 5.00. In the case of `O=Cc1c(O)ccc2oc(CCC(=O)NCCN3CCOCC3)nc12` [Example 253], the pEC50 was greater than 5.00. As for `CC(C(=O)N1CCOCC1)c1nc2c(C=O)c(O)ccc2o1` (stereo not drawn) [Example 254], the pEC50 was less than 5.00.

Turning to `Cc1nc2c(C=O)c(O)ccc2o1` [Example 255], the pEC50 was greater than 5.00. As to `Cc1nc2ccc(O)c(C=O)c2o1` [Example 256], the pEC50 is less than 5.00. For `O=Cc1c(O)ccc2ocnc12` [Example 257], the pEC50 is less than 5.00. As to `COCCNC(=O)c1cc2c(C=O)c(O)ccc2s1` [Example 258], the pEC50 is less than 5.00.

Take `O=Cc1c(O)ccc2sc(C(=O)N3CCOCC3)cc12` [Example 259]: the pEC50 was less than 5.00. For the compound `CN1CCN(C(=O)c2cc3c(C=O)c(O)ccc3s2)CC1` [Example 260], the pEC50 was less than 5.00. As to `CCNC(=O)c1cc2c(C=O)c(O)ccc2s1` [Example 261], the pEC50 is greater than 5.00. Turning to `O=Cc1c(O)ccc2sc(C(=O)NCCN3CCOCC3)cc12` [Example 262], the pEC50 was greater than 5.00. With `CN(C)CCNC(=O)c1cc2c(C=O)c(O)ccc2s1` [Example 263], the pEC50 is less than 5.00. Turning to `COC(=O)Cc1cc2c(C=O)c(O)ccc2s1` [Example 264], the pEC50 is less than 5.00. The same measure, in the same setting: under `O=Cc1c(O)ccc2sc(CC(=O)O)cc12` [Example 265] stands less than 5.00.

Consider `COCCNC(=O)CCc1cc2c(C=O)c(O)ccc2s1` [Example 266], for which the pEC50 is greater than 5.00. For the compound `CCOC(=O)CCc1cc2c(C=O)c(O)ccc2s1` [Example 267], the pEC50 was less than 5.00.

Take `O=Cc1c(O)ccc2sc(CCC(=O)N3CCOCC3)cc12` [Example 268]: the pEC50 is less than 5.00. Regarding `CCNC(=O)CCc1cc2c(C=O)c(O)ccc2s1` [Example 269], the pEC50 is less than 5.00. On the same count and under the same terms, to `CN(C)CCNC(=O)CCc1cc2c(C=O)c(O)ccc2s1` [Example 271] belongs greater than 5.00; to `COCCNC(=O)c1cc2c(C=O)c(O)ccc2[nH]1` [Example 273], less than 5.00; to `O=Cc1c(O)ccc2[nH]c(C(=O)N3CCOCC3)cc12` [Example 274], less than 5.00. The same measure, in the same setting: under `CN1CCN(C(=O)c2cc3c(C=O)c(O)ccc3[nH]2)CC1` [Example 275] stands less than 5.00; under `CCNC(=O)c1cc2c(C=O)c(O)ccc2[nH]1` [Example 276], less than 5.00; under `O=Cc1c(O)ccc2[nH]c(C(=O)NCCN3CCOCC3)cc12` [Example 277], less than 5.00. With `CN(C)CCNC(=O)c1cc2c(C=O)c(O)ccc2[nH]1` [Example 278], the pEC50 is less than 5.00.

In the case of `CCOC(=O)c1cc2c(C=O)c(O)ccc2[nH]1` [Example 279], the pEC50 is less than 5.00. For the compound `CCOC(=O)c1cc2c(C=O)c(O)ccc2o1` [Example 280], the pEC50 is less than 5.00. `O=Cc1c(O)ccc2oc(C(=O)O)cc12` [Example 281]: the pEC50 was less than 5.00. The same measure, in the same setting: under `COCCNC(=O)c1cc2c(C=O)c(O)ccc2o1` [Example 282] stands less than 5.00. For `O=Cc1c(O)ccc2oc(C(=O)N3CCOCC3)cc12` [Example 283], the pEC50 was less than 5.00.

Consider `CN1CCN(C(=O)c2cc3c(C=O)c(O)ccc3o2)CC1` [Example 284], for which the pEC50 was less than 5.00.

Consider `CCNC(=O)c1cc2c(C=O)c(O)ccc2o1` [Example 285], for which the pEC50 is greater than 5.00. On the same count and under the same terms, to `O=Cc1c(O)ccc2oc(C(=O)NCCN3CCOCC3)cc12` [Example 286] belongs greater than 5.00.

Staying with this assay, now noted: MM1.S, read-out: EC50_av.
For the compound `CC(C)c1cc(=O)oc2c(C=O)c(O)ccc12` [Example 5], the pEC50 was greater than 5.00. With `O=Cc1c(O)ccc2cc(C(=O)O)c(=O)oc12` [Example 8], the pEC50 is less than 5.00.

The target of a further assay is human IRE-1α (GST-IRE-1α) (Homo sapiens (Human), UniProt O75460). The experiment in a line: IRE-1α assay in vitro: cleavage of Cy5/BHQ2-labelled mini-XBP-1 mRNA stem-loop substrate. It is filed as biochemical. The note with it: average IC50 for inhibition of IRE-1α. The procedure: In some embodiments IRE-la inhibitor compounds form a complex with IRE-1α. […] Other substrates also can be used to detect cleavage. See US 2007/0105123.
Chain of human IRE-1α (GST-IRE-1α) (O75460 19-977): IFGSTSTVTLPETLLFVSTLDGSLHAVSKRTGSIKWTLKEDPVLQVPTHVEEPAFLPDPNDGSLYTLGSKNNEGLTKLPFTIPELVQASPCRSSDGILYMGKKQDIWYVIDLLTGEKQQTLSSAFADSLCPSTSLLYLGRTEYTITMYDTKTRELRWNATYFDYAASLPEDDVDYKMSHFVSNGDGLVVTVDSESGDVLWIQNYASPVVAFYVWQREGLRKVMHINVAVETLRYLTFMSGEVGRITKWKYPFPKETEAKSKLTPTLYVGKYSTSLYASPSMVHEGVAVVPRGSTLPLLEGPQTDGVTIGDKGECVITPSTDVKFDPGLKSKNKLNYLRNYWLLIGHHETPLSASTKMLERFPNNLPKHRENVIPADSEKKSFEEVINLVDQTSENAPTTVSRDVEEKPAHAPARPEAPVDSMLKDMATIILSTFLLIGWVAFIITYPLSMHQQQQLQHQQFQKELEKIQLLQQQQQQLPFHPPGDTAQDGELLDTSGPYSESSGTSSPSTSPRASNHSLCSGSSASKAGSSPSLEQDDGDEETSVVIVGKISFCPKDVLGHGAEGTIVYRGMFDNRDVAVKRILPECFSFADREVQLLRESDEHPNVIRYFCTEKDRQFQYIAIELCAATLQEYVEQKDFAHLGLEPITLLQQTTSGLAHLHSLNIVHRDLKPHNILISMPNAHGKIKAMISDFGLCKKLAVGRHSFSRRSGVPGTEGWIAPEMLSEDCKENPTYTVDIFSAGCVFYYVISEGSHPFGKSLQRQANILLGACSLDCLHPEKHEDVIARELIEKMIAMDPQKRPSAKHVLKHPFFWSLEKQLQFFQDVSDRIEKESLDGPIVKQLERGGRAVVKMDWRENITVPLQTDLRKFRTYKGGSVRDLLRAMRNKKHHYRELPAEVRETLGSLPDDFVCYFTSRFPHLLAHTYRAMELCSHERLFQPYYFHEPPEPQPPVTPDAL
A fusion protein comprising glutathione S transferase (GST) and human IRE-1α (GST-IRE-1α) obtained from a 500 ml baculovirus-infected insect cell culture can be used to measure IRE-1α activity in vitro.
Five μl of a reaction mixture comprising IX reaction buffer (5× reaction buffer is 100 mM Hepes pH 7.5, 250 mM KOAc, 2.5 mM MgCl2), 3 mM DTT, and 0.4% polyethylene glycol water is added to each well of 384 well plates. Twenty-five nanoliters of a 1 mM test compound solution are added to test wells. Three μl of a […] IRE-1α preparation are added to each test well and to positive control wells (final concentration 5.82 ng/well). Negative control wells contain only reaction mixture and test compound.
After spinning the plates at 1200 rpm for 30 seconds, 3 μl of an IRE-1α human mini-XBP-1 mRNA stem-loop substrate 5′-[…]-3′ (SEQ ID NO:1), labeled with the fluorescent dye Cy5 at the 5′ end and Black Hole Quencher 2 (BH2) at the 3′ end, are added to each well of a control plate. The plates are again spun at 1200 rpm for 30 seconds. Final concentrations for the assay are: 63 nM IRE-1α substrate, 5.82 ng IRE-1α protein, and 2.5 μM test compound.
The plates are covered with lids and incubated for one hour at 30° C. The plates are then transferred to an ACQUEST™ microplate reader. Data is analyzed using data analysis software, and the percent activity of IRE-1α is calculated.
IC50 for inhibition of IRE-1α of compounds identified in Table 1 was measured as described in EXAMPLE 35.
The compound `Cc1c(-c2ccc(C(=O)NCCN3CCOCC3)cc2)c(=O)oc2c(C=O)c(O)ccc12` [Example 3] gave a negative logarithm of the IC50 (pIC50) greater than 7.00. In turn, `CC(C)c1cc(=O)oc2c(C=O)c(O)ccc12` [Example 5] had a negative-log IC50 (pIC50) greater than 7.00.

Consider `O=Cc1c(O)ccc2cc(C(=O)O)c(=O)oc12` [Example 8], for which the pIC50 was less than 5.00. On the same count and under the same terms, under `CN1CCN(CC(=O)N2CCc3c(ccc(O)c3C=O)C2)CC1` [Example 30] stands less than 5.00; under `O=Cc1c(O)ccc2c1CCN(C(=O)c1cccnc1)C2` [Example 31], less than 5.00.

In turn, `Cc1nc(N2CCc3c(ccc(O)c3C=O)C2)sc1C(=O)N1CCN(C)CC1` [Example 32] gave a pIC50 greater than 5.00.
